{"source": "patent US4421767A", "about": "“Compounds and methods for treating depression” (priority 1982, dated 1983)", "key": {"[1]": {"tested_on": "MAO", "conditions": "literature; cited from earlier work"}, "[2]": {"tested_on": "MAO", "test": "In vitro MAO inhibition", "type": "biochemical"}, "[3]": {"tested_on": "non-neuronal MAO", "test": "Ex vivo MAO activity after i.p. injection in rats, non-neuronal MAO", "parameters": "species or system rat", "conditions": "AFMBA 100 mg/kg i.p., 18 hours", "procedure": "(§1) Rats were injected with AFHBA (0.5 mg/kg, i.p.) alone or with AFHBA (0.5 mg/kg, i.p.) in combination with MFMD (2.0 mg/kg, i.p.) administered 30 minutes before AFHBA. Animals were killed 18 hours later and MAO activity (5-HT and phenethylamine as substrates) was determined in brain, heart, and liver. In the brain, AFHBA administered alone inhibited neuronal MAO by 72% and non-neuronal MAO by 37%.\n(§2) III. Rats were injected with AFMBA (100 mg/kg, i.p.) and were killed 18 hours later. MAO activity was determined in the brain, heart, and liver using 5-HT and PEA."}, "[4]": {"tested_on": "neuronal MAO", "test": "Ex vivo MAO activity after i.p. injection in rats, neuronal MAO", "parameters": "species or system rat", "conditions": "AFMBA 100 mg/kg i.p., 18 hours", "procedure": "as §1, §2"}, "[5]": {"tested_on": "heart rate and blood pressure responses to tyramine", "type": "in vivo, rat", "conditions": "for Tyramine Potentiation: 5 days, tyramine i.d.", "procedure": "(§3) (B) Rats were gavaged with saline or carbidopa given at dosage of 10 or 100 mg/kg. Thirty minutes later, the rats were gavaged with saline or AFHBA given at a dosage of 62.5 μg/kg. This treatment was repeated daily for 5 days. On the 6th day, the rats were anaesthetized and heart rate and blood pressure responses to tyramine (0.3-50 mg/kg, i.d.) were determined. Additionally, monoamines and MAO activity were determined in various tissues, including brain."}, "[6]": {"tested_on": "brain noradrenaline and 5-HT concentrations", "test": "Brain amine concentration, AFHBA with or without carbidopa pretreatment in rats (Table II)", "type": "in vivo, rat", "conditions": "for Brain Amine Concentration, 5-HT / Brain Amine Concentration, Noradrenaline: 5 days", "procedure": "as §3"}, "[7]": {"tested_on": "MAO", "test": "Ex vivo MAO activity in rats, protection by extracerebral AADC inhibitor", "parameters": "species or system rat", "conditions": "carbidopa 50 mg/kg i.p. with AFHBA, compared with MFMD 2.0 mg/kg i.p., heart", "procedure": "as §1\nMAO activity was determined in the brain using 5-HT and phenethylamine (PEA) as substrates."}, "[8]": {"tested_on": "MAO-A", "conditions": "literature; cited from earlier work"}, "[9]": {"tested_on": "depression", "conditions": "literature; cited from earlier work"}, "[10]": {"tested_on": "brain noradrenaline and 5-HT concentrations", "test": "Brain amine concentration after 5 days oral MAO inhibitor in rats (Table I)", "type": "in vivo, rat", "conditions": "for Brain Amine Concentration, 5-HT / Brain Amine Concentration, Noradrenaline: 5 days", "procedure": "On the 6th day, rats were anaesthetized and heart rate and blood pressure responses to tyramine (0.3-50 mg/kg) administered intraduodenally (i.d.) were determined. Additionally, monoamines and MAO activity were determined in various tissues including brain."}, "[11]": {"tested_on": "heart rate and blood pressure responses to tyramine", "test": "Potentiation of tyramine response after 5 days oral MAO inhibitor in rats (Table I)", "type": "in vivo, rat", "conditions": "for Tyramine Potentiation: 5 days, tyramine i.d.", "procedure": "(A) Rats were gavaged daily for 5 days with saline or 2-amino-4-fluoro-3-(3'-hydroxyphenyl)-3-butenoic acid (AFHBA) at dosages of 15.6, 62.5, 250, or 1000 μg/kg or with clorgyline at dosages of 1250 or 5000 μg/kg. On the 6th day, rats were anaesthetized and heart rate and blood pressure responses to tyramine (0.3-50 mg/kg) administered intraduodenally (i.d.) were determined. Additionally, monoamines and MAO activity were determined in various tissues including brain."}, "[12]": {"tested_on": "cheese effect", "conditions": "low dosages where preferential inhibition of MAO-B occurs; cited from earlier work"}, "[13]": {"tested_on": "MAO-B", "conditions": "literature; cited from earlier work"}, "[14]": {"conditions": "carbidopa alone 10000 μg/kg daily p.o."}, "[15]": {"conditions": "carbidopa alone 100000 μg/kg daily p.o."}, "[16]": {"conditions": "Clorgyline 1250 μg/kg daily p.o."}, "[17]": {"conditions": "Clorgyline 5000 μg/kg daily p.o."}}, "note": "Where two headings read alike, the source gives them in different places."}
{"smiles": "N[C@@H]1C[C@H]1c1ccccc1", "note": "(relative stereo) [tranylcypromine]", "values": [{"measurement": "preference of action upon MAO", "setting": "[1]", "value": "not preferential in their action upon MAO"}]}
{"smiles": "NCC(=CF)c1cccc(O)c1", "note": "[2-(3'-hydroxy)phenyl-3-fluoroallylamine]", "values": [{"measurement": "MAO inhibition type", "setting": "[2]", "value": "time-dependent irreversible inhibitor"}, {"measurement": "IC50", "setting": "[2]; unit inferred", "value": "~1", "unit": "nM"}]}
{"smiles": "COc1ccc(C(=CF)C(N)C(=O)O)cc1O", "note": "(centres unmarked) [AFMBA, 2-amino-4-fluoro-3-(3'-hydroxy-4-methoxyphenyl)-3-butenoic acid]", "values": [{"measurement": "% Inhibition of MAO, Non-neuronal", "setting": "[3]; brain", "value": 40, "unit": "%"}, {"measurement": "% Inhibition of MAO, Non-neuronal", "setting": "[3]; heart", "value": 46, "unit": "%"}, {"measurement": "% Inhibition of MAO, Non-neuronal", "setting": "[3]; liver", "value": 11, "unit": "%"}, {"measurement": "% Inhibition of MAO, Neuronal", "setting": "[4]; brain", "value": 16, "unit": "%"}, {"measurement": "% Inhibition of MAO, Neuronal", "setting": "[4]; heart", "value": 18, "unit": "%"}, {"measurement": "% Inhibition of MAO, Neuronal", "setting": "[4]; liver", "value": 2, "unit": "%"}]}
{"smiles": "C[C@@](Cc1ccc(O)c(O)c1)(NN)C(=O)O", "note": "[Carbidopa, reference compound]", "values": [{"measurement": "effect on tyramine response", "setting": "[5]; carbidopa alone 10 mg/kg", "value": "no effect on tyramine response"}, {"measurement": "Tyramine Potentiation", "setting": "[5]; [14]", "value": 1.1}, {"measurement": "Tyramine Potentiation", "setting": "[5]; [15]", "value": 2.3}, {"measurement": "effect on tyramine response", "setting": "[5]; carbidopa alone 100 mg/kg", "value": "potentiated the tyramine response"}, {"measurement": "elevation of brain monoamines on coadministration with AFHBA", "setting": "[6]; carbidopa 10 mg/kg + AFHBA 62.5 μg/kg", "value": "significantly enhanced the elevation of brain monoamines"}, {"measurement": "effectiveness of AFHBA to raise brain monoamines on coadministration", "setting": "[6]; carbidopa 100 mg/kg + AFHBA", "value": "reduced the effectiveness of AFHBA to raise brain monoamines"}, {"measurement": "Brain Amine Concentration, 5-HT", "setting": "[6]; [14]", "value": "599 ± 31", "unit": "ng/g"}, {"measurement": "Brain Amine Concentration, Noradrenaline", "setting": "[6]; [14]", "value": "366 ± 3", "unit": "ng/g"}, {"measurement": "Brain Amine Concentration, 5-HT", "setting": "[6]; [15]", "value": "443 ± 19", "unit": "ng/g"}, {"measurement": "Brain Amine Concentration, Noradrenaline", "setting": "[6]; [15]", "value": "271 ± 19", "unit": "ng/g"}, {"measurement": "protective effect against inhibition of MAO in the heart", "setting": "[7]", "value": "same protective effect against inhibition of MAO in the heart as MFMD"}]}
{"smiles": "C#CCN(C)CCCOc1ccc(Cl)cc1Cl", "note": "[Clorgyline, reference compound]", "values": [{"measurement": "preferential inhibition of MAO-A", "setting": "[8]", "value": "preferentially inhibited"}, {"measurement": "selectivity at lower versus higher dosages", "setting": "[1]", "value": "selective inhibitors at lower dosages, but are not selective inhibitors at higher dosages"}, {"measurement": "clinical antidepressant effect", "setting": "[9]", "value": "clinically effective antidepressant agents"}, {"measurement": "Brain Amine Concentration, 5-HT", "setting": "[10]; [16]", "value": "620 ± 34", "unit": "ng/g"}, {"measurement": "Brain Amine Concentration, Noradrenaline", "setting": "[10]; [16]", "value": "351 ± 11", "unit": "ng/g"}, {"measurement": "Brain Amine Concentration, 5-HT", "setting": "[10]; [17]", "value": "1027 ± 82", "unit": "ng/g"}, {"measurement": "Brain Amine Concentration, Noradrenaline", "setting": "[10]; [17]", "value": "329 ± 19", "unit": "ng/g"}, {"measurement": "brain noradrenaline and 5-HT concentrations (dose relation)", "setting": "[10]; subacute treatment", "value": "dose-related increases in brain noradrenaline and 5-HT concentrations"}, {"measurement": "Tyramine Potentiation", "setting": "[11]; Clorgyline 1250 μg/kg daily p.o., some potentiation at lowest doses of tyramine (footnote c)", "value": 1.0}, {"measurement": "Tyramine Potentiation", "setting": "[11]; [17]", "value": 5.0}, {"measurement": "potentiation of the tyramine response (dose relation)", "setting": "[11]; subacute treatment", "value": "potentiation of the tyramine response"}]}
{"smiles": "C#CCN(C)[C@H](C)Cc1ccccc1", "note": "[L-deprenyl]", "values": [{"measurement": "clinical antidepressant effect", "setting": "[9]", "value": "clinically effective antidepressant agents"}, {"measurement": "cheese effect", "setting": "[12]", "value": "not observed"}]}
{"smiles": "Cc1cc(C(=O)NNCc2ccccc2)no1", "note": "[isocarboxazid]", "values": [{"measurement": "preference of action upon MAO", "setting": "[1]", "value": "not preferential in their action upon MAO"}]}
{"smiles": "C#CCN(C)Cc1ccccc1", "note": "[pargyline]", "values": [{"measurement": "selectivity at lower versus higher dosages", "setting": "[1]", "value": "selective inhibitors at lower dosages, but are not selective inhibitors at higher dosages"}, {"measurement": "clinical antidepressant effect", "setting": "[9]", "value": "clinically effective antidepressant agents"}, {"measurement": "preferential inhibition of MAO-B", "setting": "[13]", "value": "preferentially inhibited"}]}
{"smiles": "NNCCc1ccccc1", "note": "[phenelzine]", "values": [{"measurement": "preference of action upon MAO", "setting": "[1]", "value": "not preferential in their action upon MAO"}]}
